# Values of other authors in patent US20070037740A1, “Combination therapy with glatiramer acetate and alphacalcidol for the treatment of multiple sclerosis” (priority 2003, published 2007).
# Key:
# [1] = system: murine experimental autoimmune encephalomyelitis (EAE)
# [2] = daily subcutaneous injections, 20 mg/injection
Molecule,progression of murine EAE ([1]; administered after the induction of EAE),"development of murine EAE ([1]; mouse, in vivo)","appearance of ""black holes"" (multiple sclerosis; [2])",appearance of new lesions by magnetic resonance imaging (MRI) (multiple sclerosis; [2]),progression of disability (multiple sclerosis; [2]),relapse rates (multiple sclerosis; [2]),effective in treating multiple sclerosis (MS) (multiple sclerosis; in vivo)
"C=C1/C(=C\C=C2/CCC[C@]3(C)[C@@H]([C@H](C)CCCC(C)(C)O)CC[C@@H]23)C[C@@H](O)C[C@@H]1O [1α,25-dihydroxycholecalciferol]",prevents the progression,prevents the development,–,–,–,–,–
"L-glutamic acid polymer with L-alanine, L-lysine and L-tyrosine, acetate (salt) [glatiramer acetate]",–,–,reduce,reduce,reduce,reduce,effective
